Results taken from patent US20240417412A1, “HETEROCYCLIC COMPOUNDS AND METHODS OF USE” (AMGEN INC., priority 2022, published 2024).
pIC50: −log10 of the molar value. Where two headings read alike, the source gives them in different places.

Tests used:
KRAS G12D [1] = target: KRAS G12D (Homo sapiens, UniProt P01116, C118A/G12D); assay: KRAS G12D Coupled Nucleotide Exchange Assay; type: biochemical; conditions: GDP-bound KRAS G12D/C118A, 2 hours pre-incubation, SOS-mediated nucleotide exchange, AlphaScreen
Chain of KRAS G12D (Homo sapiens, UniProt P01116, C118A/G12D) (P01116 1-169 isoform P01116-2 G12D/C118A): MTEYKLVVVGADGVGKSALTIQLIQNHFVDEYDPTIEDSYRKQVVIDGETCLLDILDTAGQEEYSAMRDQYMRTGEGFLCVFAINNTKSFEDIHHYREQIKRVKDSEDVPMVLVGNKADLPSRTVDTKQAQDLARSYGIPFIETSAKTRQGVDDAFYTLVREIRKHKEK
Method: The assay plates were then read on a PerkinElmer EnVision Multilabel Reader, using AlphaScreen® technology, and data were analyzed using a 4-parameter logistic model to calculate IC50 values.

KRAS G12D [2] = target: KRAS G12D (Homo sapiens, UniProt P01116, G12D); assay: KRAS G12D TR-FRET Assay; conditions: His-tagged KRAS G12D, biotinylated KRPep-2d, read-out: KRAS G12D Binding IC50
Chain of KRAS G12D (Homo sapiens, UniProt P01116, G12D) (P01116 1-188 isoform P01116-2 G12D): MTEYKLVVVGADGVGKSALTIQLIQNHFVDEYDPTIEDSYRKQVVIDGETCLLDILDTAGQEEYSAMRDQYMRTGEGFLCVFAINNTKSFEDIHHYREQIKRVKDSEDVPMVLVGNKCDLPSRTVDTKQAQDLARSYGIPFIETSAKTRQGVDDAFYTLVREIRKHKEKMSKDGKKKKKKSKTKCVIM
Method: The plate was incubated for 30 minutes at room temperature. Biotinylated KRPep-2d substrate (Amgen) was diluted to 20 nM in Assay Buffer and 2 uL was added to all wells and incubated for 1 hour at room temperature. Detection Reagent (0.4 nM LANCE Eu-W1024 Anti-6×His (Perkin Elmer AD0401), 5 nM streptavidin-d2 (Cisbio 610SADLA)) was prepared in Assay Buffer, then 4 μL was added to the plate and incubated for 1 hour at room temperature.

p-ERK (AsPC-1 cells) = assay: Phospho-ERK1/2 MSD Assay; type: cell-based; conditions: for IC50: Homo sapiens, ASPC1, 2 h, read-out: 2 h p-ERK (AsPC-1 cells), IC50 (μM), AsPC-1 cells, 2 hours compound treatment; for pIC50: read-out: 2 h p-ERK (AsPC-1 cells), IC50, AsPC-1 cells, 2 hours compound treatment
Method: Sixteen hours prior to compound treatment, AsPC-1 cells were seeded in 96-well cell culture plates at a density of 25,000 cells/well and incubated at 37° C., 5% CO2. A compound dose-response titration was diluted in growth media, added to appropriate wells of a cell culture plate, and then incubated at 37° C., 5% CO2 for 2 hours. […] Phosphorylation of ERK1/2 in compound-treated lysates was assayed using Phospho-ERK1/2 Whole Cell Lysate kits (Meso Scale Discovery K151DWD) according to the manufacturer's protocol. Assay plates were read on a Meso Scale Discovery Sector Imager 6000, and data were analyzed using a 4-parameter logistic model to calculate IC50 values.

Structure (SMILES)	pIC50 (KRAS G12D [1])	pIC50 (KRAS G12D [2])	IC50 (p-ERK (AsPC-1 cells)) [µM]	pIC50 (p-ERK (AsPC-1 cells))
Oc1cc(-c2ncc3c(N4CCCC5(CC(O)C5)C4)nc(OC[C@@]45CCCN4C[C@H](F)C5)nc3c2F)c2c(F)c(F)ccc2c1 (single isomer, unassigned) [Example 11]	8.70	8.70	0.119	–
CCc1c(F)ccc2cc(O)cc(-c3ncc4c(N5CCCC6(C5)CC(C)(O)C6)nc(OC[C@@]56CCCN5C[C@H](F)C6)nc4c3F)c12 (single isomer, unassigned) [Example 56]	8.22	8.40	–	6.46
CCc1c(F)ccc2cc(O)cc(-c3ncc4c(N5CCCC6(C5)CC6(F)F)nc(OC[C@@]56CCCN5C[C@H](F)C6)nc4c3F)c12 (stereo partly drawn) [Example 44, 4-(4-(1,1-Difluoro-5-azaspiro[2.5]octan-5-yl)-8-fluoro-2-(((2R,7aS)-2-fluorotetrahydro-1H-pyrrolizin-7a(5H)-yl)methoxy)pyrido[4,3-d]pyrimidin-7-yl)-5-ethyl-6-fluoronaphthalen-2-ol]	8.52	8.52	0.252	–
CCc1c(F)ccc2cc(O)cc(-c3ncc4c(N5CC(O)CC6(CCC6)C5)nc(OC[C@@]56CCCN5C[C@H](F)C6)nc4c3F)c12 (stereo partly drawn) [Example 1, 6-(7-(8-Ethyl-7-fluoro-3-hydroxynaphthalen-1-yl)-8-fluoro-2-(((2R,7aS)-2-fluorotetrahydro-1H-pyrrolizin-7a(5H)-yl)methoxy)pyrido[4,3-d]pyrimidin-4-yl)-6-azaspiro[3.5]nonan-8-ol]	8.40	8.52	0.329	–
CCc1c(F)ccc2cc(O)cc(-c3ncc4c(N5CCCC6(CNC(=O)C6)C5)nc(OC[C@@]56CCCN5C[C@H](F)C6)nc4c3F)c12 (single isomer, unassigned) [Example 8]	8.40	8.70	0.252	–
CCc1c(F)ccc2cccc(-c3ncc4c(N5CCCC6(CNC(=O)O6)C5)nc(OC[C@@]56CCCN5C[C@H](F)C6)nc4c3F)c12 (single isomer, unassigned) [Example 63]	8.70	8.40	0.026	–
CCc1c(F)ccc2cc(O)cc(-c3ncc4c(N5CCC6(CC5)CNC(=O)O6)nc(OC[C@@]56CCCN5C[C@H](F)C6)nc4c3F)c12 [Example 41, 8-(7-(8-Ethyl-7-fluoro-3-hydroxynaphthalen-1-yl)-8-fluoro-2-(((2R,7aS)-2-fluorotetrahydro-1H-pyrrolizin-7a(5H)-yl)methoxy)pyrido[4,3-d]pyrimidin-4-yl)-1-oxa-3,8-diazaspiro[4.5]decan-2-one]	8.00	7.72	> 10	–
C#Cc1c(F)ccc2cc(O)cc(-c3ncc4c(N5CCCC6(CCO6)C5)nc(OC[C@@]56CCCN5C[C@H](F)C6)nc4c3F)c12 (single isomer, unassigned) [Example 25]	9.00	9.00	0.043	–
CCc1c(F)ccc2cc(O)cc(-c3ncc4c(N5CCCC6(CCC6O)C5)nc(OC[C@@]56CCCN5C[C@H](F)C6)nc4c3F)c12 (single isomer, unassigned) [Example 49]	7.89	8.15	0.576	–
C#Cc1c(F)ccc2cc(O)cc(-c3ncc4c(N5CCCC6(CCS(=O)(=O)C6)C5)nc(OC[C@@]56CCCN5C[C@H](F)C6)nc4c3F)c12 (single isomer, unassigned) [Example 36]	8.70	8.70	1.11	–
CCc1c(F)ccc2cc(O)cc(-c3ncc4c(N5CCCC6(COC(=O)O6)C5)nc(OC[C@@]56CCCN5C[C@H](F)C6)nc4c3F)c12 (single isomer, unassigned) [Example 67]	8.70	8.40	–	7.22
CCc1c(F)ccc2cc(O)cc(-c3ncc4c(N5CCCC6(CC(=O)N6)C5)nc(OC[C@@]56CCCN5C[C@H](F)C6)nc4c3F)c12 (single isomer, unassigned) [Example 10]	8.70	9.00	–	7.36
Oc1cc(Cl)c(C2CC2)c(-c2ncc3c(N4CCCC5(CCO5)C4)nc(OC[C@@]45CCCN4C[C@H](F)C5)nc3c2F)c1 (stereo partly drawn) [Example 26, 3-Chloro-4-cyclopropyl-5-(8-fluoro-2-(((2R,7aS)-2-fluorotetrahydro-1H-pyrrolizin-7a(5H)-yl)methoxy)-4-(1-oxa-6-azaspiro[3.5]nonan-6-yl)pyrido[4,3-d]pyrimidin-7-yl)phenol]	8.70	9.00	0.066	–
CCc1c(F)ccc2cc(O)cc(-c3ncc4c(N5CCCC6(CNC6=O)C5)nc(OC[C@@]56CCCN5C[C@H](F)C6)nc4c3F)c12 (single isomer, unassigned) [Example 45]	8.30	8.52	0.161	–
Oc1cc(-c2ncc3c(N4CCC[C@]5(CCO5)C4)nc(OC[C@@]45CCCN4C[C@H](F)C5)nc3c2F)c2c(Cl)c(F)ccc2c1 (single isomer, unassigned) [Example 58]	9.00	9.00	0.003	–
CCc1c(F)ccc2cc(O)cc(-c3ncc4c(N5CC(C)(O)CC6(CC6)C5)nc(OC[C@@]56CCCN5C[C@H](F)C6)nc4c3F)c12 (stereo partly drawn) [Example 19, 5-(7-(8-Ethyl-7-fluoro-3-hydroxynaphthalen-1-yl)-8-fluoro-2-(((2R,7aS)-2-fluorotetrahydro-1H-pyrrolizin-7a(5H)-yl)methoxy)pyrido[4,3-d]pyrimidin-4-yl)-7-methyl-5-azaspiro[2.5]octan-7-ol]	8.22	8.30	0.341	–
